Our source for the EC50 values is article PMC3834340, “X-Ray Crystal Structure of the Ancestral 3-Ketosteroid Receptor–Progesterone–Mifepristone Complex Shows Mifepristone Bound at the Coactivator Binding Interface” (PLoS ONE, 2013).

Assay [1] has as its system T1, ancestral 3-ketosteroid receptor (ancSR2).
T1 construct: ancSR2 LBD, residues 2 through 248 modeled
Description: X-ray crystal structure at […] Å (ternary complex, surface sites); the EC50 is from a separate CHO-K1 luciferase reporter assay and is not assigned to these sites. The class given is cell-based, synthetic construct.

Assay [2] has the same test system. Description: X-ray crystal structure at […] Å; the EC50 is from a Gal4-DBD–LBD luciferase reporter assay in CHO-K1 cells. The class given is cell-based, synthetic construct. In general terms: Reporter assays use an easily measured gene product as a stand-in for the process of interest.

What is called EC50 is the concentration at which the effect is half-maximal. Lower therefore signals an effect from little substance.

The structures appear in SMILES notation.

For the compound `CC#C[C@]1(O)CC[C@H]2[C@@H]3CCC4=CC(=O)CCC4=C3[C@@H](c3ccc(N(C)C)cc3)C[C@@]21C` [mifepristone], the EC50 in assay [1] was found to be 56 ± 1.2 nM.
On to `CC(=O)[C@H]1CC[C@H]2[C@@H]3CCC4=CC(=O)CC[C@]4(C)[C@H]3CC[C@]12C` [progesterone], for which, in assay [2], the midpoint of the response, the EC50, lay at 0.078 ± 0.0017 nM.
